The text below walks through data of PMC11312998, “Molecular Pro-Apoptotic Activities of Flavanone Derivatives in Cyclodextrin Complexes: New Implications for Anticancer Therapy” (International Journal of Molecular Sciences, 2024).

Series [1] deals with MDA-MB-231. Description: Nitric oxide (RNS) generation, DAF-FM diacetate probe. Format: cell-based, human. To be noted: IC50 concentration, 24 h. The procedure:
Diaminofluorescein-FM diacetate (DAF-FM diacetate, Invitrogen, Carlsbad, CA, USA), is a widely employed cell permeant fluorescent reagent for the detection and quantification of reactive nitrogen species (RNS), particularly nitric oxide (NO). […] However, upon reaction with NO, it undergoes a transformation that yields a highly fluorescent benzotriazole derivative (excitation/emission maxima: λex = 495, λem = 515 nm).
The cells were seeded in black 96-well fluorometric microplates at a density of 10 × 10^3 cells per well. […] After incubation with the compounds, the medium was removed, the cell monolayer in the wells was washed twice with HBSS (140 mM NaCl, 5 mM KCl, 0.8 mM MgCl2, 1.8 mM CaCl2, 1 mM Na2HPO4, 10 mM HEPES and 1% glucose) and 50 μL of DAF-FM diacetate solution in HBSS was added to each well (final probe concentration 5 μmol/L). Cells were incubated with the probe for 30 min in the dark in an incubator (37 °C). After incubation, the probe was removed and replaced with fresh HBSS buffer and then incubated for an additional 30 min to allow for complete de-esterification of the intra cellular diacetates. After this time, the fluorescence was measured. The measurement was performed at the following excitation and fluorescence emission wavelengths: λex = 495 nm/λem = 515 nm. Fluorescence was measured on a Perkin-Elmer LS-5B spectrofluorometer (MA, USA). Fluorescence intensity values for control cells were arbitrarily set as 100%. The results are presented as percentages of control cells calculated on the basis of a comparison of the fluorescence intensity ratio of test samples and controls (100%) (fluorescence of samples was calculated as Δf in relation to the control).

Series [2] concerns MCF-7. Description: MTT cytotoxicity assay. Format: cell-based. To be noted: Homo sapiens, MCF7, 24 h incubation, mean ± SEM, read-out: Cytotoxic effect, IC50. The procedure: (§1) Cell viability was determined using the metabolic microplate spectrophotometric assay with Methylthiazolyl diphenyltetrazolium bromide (MTT), i.e., 3-(4,5-Dimethyl-2-thiazolyl)-2,5-diphenyl-2H-tetrazolium bromide (Sigma-Aldrich; St. Louis, MO, USA). The anticancer activity of the investigated compounds was evaluated in vitro on the basis of their ability to inhibit the proliferation of various cancer cells. The appropriate number of cells for a given cell line (6–8 × 10^3 cells/mL) were seeded into sterile, colorless 96-well microplates. After 24 h of culture, specific wells of the microplate were treated with test compounds (10–200 µmol/L concentration) and incubated in a CO2 incubator for 24 h. The medium was then removed, the cell monolayer was washed twice with sterile PBS solution and fresh culture medium was added to the wells of the microplate.
(§2) After 48 h of cell culture, the MTT test was conducted. In each well of the microplate, 50 µL of tetrazolium salt solution (final concentration 0.05 mg/mL) was added. The microplate was then placed in a CO2 incubator for 3–4 h (depending on the cell line). Following incubation, 100 µL of DMSO (dimethyl sulfoxide, Sigma-Aldrich, St. Louis, MO, USA) was added to the microplate wells to dissolve the purple formazan crystals formed in the environment of living cells. The absorbance of the formazan solution was read at a wavelength of λ = 580 nm and a reference wavelength of λ = 720 nm after gentle mixing (Biotek Power Wave HT, Biotek Instruments, Winooski, VT, USA).
(§3) The percentage of live cells was calculated by comparing the absorbance value of the tested samples with that of the control (cells not treated with compounds). Control absorbance was arbitrarily considered to be 100%.
(§4) In order to determine the contribution of ROS to the cytotoxicity of the tested compounds, the cells were pre-incubated for 1 h with the antioxidant vitamin E (Trolox, Sigma-Aldrich; St. Louis, MO, USA). Cells were seeded into sterile, colorless 96-well microplates at a concentration of 6–8 × 10^3 cells/mL, depending on the cell line. After 24 h of culture, Trolox was added at a final concentration of 50 μM/well. After 1 h of incubation, the antioxidant was washed off, then appropriate concentrations of test compounds (10–200 µmol/L concentration) were added to fresh cell culture medium and incubated for 24 h. The MTT test was then performed under identical experimental conditions, as described in Section 3.1.2.
(In general: Formazan colour is commonly taken as a measure of viable cells.)

For series [3], the system named is Hec-1-A. The experiment in a line: MTT cytotoxicity assay. Format: cell-based. To be noted: Homo sapiens, 24 h incubation, mean ± SEM, read-out: Cytotoxic effect, IC50. The procedure: as §1, §2, §3, §4
Series [4] concerns MDA-MB-231. The experiment in a line: MTT cytotoxicity assay. Format: cell-based. To be noted: Homo sapiens, 24 h incubation, mean ± SEM, read-out: Cytotoxic effect, IC50. How it is done: as §1, §2, §3, §4
The subject of series [5] is HCC38. The experiment in a line: MTT cytotoxicity assay. Format: cell-based. To be noted: Homo sapiens, 24 h incubation, mean ± SEM, read-out: Cytotoxic effect, IC50. How it is done: as §1, §2, §3, §4
Series [6] has as its system RBCs. Description: Red blood cells lysis assay. To be noted: 24 h. Format: cell-based, human. The procedure:
The experiments on human blood were performed in accordance with Polish national guidelines, and the study protocols were approved by the Bioethics Committee of the Medical University of Lodz, Poland: approval no (RNN/104/20/KE). The blood samples were obtained from healthy donors at the Blood Donation Centre in Lodz. The procedure for […] for erythrotoxicity studies is given in a previous paper. The influence of the synthesized compounds, together with a reference compound on RBC membrane integrity, was performed by lysis assay, described elsewhere. Briefly, 2% RBC suspension in 0.9% NaCl was incubated at 37 °C for 24 h with the tested compounds at concentrations of 100 µmol/L, 50 µmol/L, 25 µmol/L, 10 µmol/L and 1 µmol/L. The samples were centrifuged at 3000 rpm for 10 min, and the absorbance of the supernatant was measured at 550 nm. […] A sample containing saline solution represented the spontaneous hemolysis of RBCs (control). The experiments were conducted using at least three different biological materials (n = 3). […] Additionally, erythrocyte morphology was evaluated using a phase contrast Opta-Tech inverted microscope at 400× magnification.

Series [7] deals with intrinsic coagulation pathway. The experiment in a line: Activated partial thromboplastin time (APTT). To be noted: 1–100 µmol/L; values did not exceed the reference range. Format: biochemical, human. The procedure: Basic coagulation parameters were determined using Bio-Ksel reagents (Grudziądz, Poland): APTT reagent, calcium chloride, Bio-Ksel PT plus reagent (tromboplastin and solvent) and thrombin (3.0 UNIH/mL) for TT experiments. The methods were calibrated and the coefficient of variation (PT, APTT, TT experiments) was calculated using a calibrator (Bio-Ksel, Grudziadz, Poland), normal plasma (Bio-Ksel, Grudziądz, Poland) and water for injection (Polpharma, Gdańsk, Poland).
The experiments were conducted in multiplicates, and their results are presented as mean ± standard deviation (SD). Control samples consisting of distilled water and methanol were tested. All methods were validated using Bio-Ksel normal plasma, which was dissolved in water for injection (Polpharma, Gdańsk, Poland). The reference values for each test are as follows: PT: 9.7–13.8 s; INR: 0.9–1.2; APTT: 28.2–42.3 s; TT: 11.0–16.5 s for 3.0 UNIH/mL of thrombin.

The subject of series [8] is colon cancer lines. The experiment in a line: GSH concentration in cancer cells (other studies, not yet published). It is filed as cell-based. To be noted: results not yet published.
[9] abbreviates: concentration range of 1–25 µmol/L.
Setting [10] is: concentrations of 50 µmol/L and 100 µmol/L.

SMILES strings stand for the structures.

As a reminder, the IC50 is the concentration that inhibits the measured activity by half. In the case of `COc1cccc(/C=C2/C(=O)c3ccccc3OC2c2ccccc2)c1` (stereo not drawn) [Compound 3], the “increase in nitric oxide level (DAF-FM)” value in series [1] was “approximately 15%”. Further, the IC50 in series [2] stood at 16.4 ± 2.3 µM; in series [3], 26.9 ± 2.3 µM; in series [4], 15.2 ± 3.1 µM; in series [5], 20.9 ± 1.5 µM. Moreover, the “impact on % hemolysis (in words)” value in series [6] (setting [9]) is given as “did not show a statistically significant impact”; in series [6] (setting [10]), “statistically significant increase in % hemolysis”. For the same molecule, in series [7], the “APTT time (in words)” value was “mild, statistically significant prolongation of APTT time”. Moreover, the “GSH concentration in cancer cells (in words)” value (“GSH concentration” for short) in series [8] was “decrease in GSH concentration”.
For the molecule `O=C1/C(=C/c2ccccc2)C(c2ccccc2)Oc2ccccc21` (stereo not drawn) [Compound 5], in series [1], the “increase in nitric oxide level (DAF-FM)” value was “approximately 15%”. The half-inhibitory concentration (IC50) is 25.1 ± 4.2 µM in series [2], 35.9 ± 2.4 µM in series [3], 23.3 ± 1.4 µM in series [4] and 25.6 ± 0.9 µM in series [5]. For the same molecule, the “impact on % hemolysis (in words)” value is “did not show a statistically significant impact” in series [6] (setting [9]) and “statistically significant increase in % hemolysis” in series [6] (setting [10]). The “APTT time (in words)” value in series [7] is “mild, statistically significant prolongation of APTT time”. Besides, the “GSH concentration” value in series [8] was “decrease in GSH concentration”.
`O=C1/C(=C/c2ccccc2)COc2ccccc21` [Compound 1]: the “increase in nitric oxide level (DAF-FM)” value in series [1] was “approximately 20%”. Moreover, the concentration for half-maximal inhibition (IC50) in series [2] was 10.2 ± 0.9 µM; in series [3] it was 18.5 ± 1.2 µM; in series [4], 12.6 ± 1.1 µM; in series [5] it was 15.7 ± 0.8 µM. Besides, the “GSH concentration” value in series [8] is listed as “decrease in GSH concentration”.
